# Literature values as cited in patent US20150218090A1, “DOSAGE REGIMEN FOR AN S1P RECEPTOR MODULATOR OR AGONIST” (NOVARTIS AG, priority 2011, published 2015).
# Details: administration of 1.25 mg of FTY720; healthy subjects
compound,measurement,value
"CCCCCCCCc1ccc(CCC(N)(CO)CO)cc1 [FTY720, 2-amino-2-[2-(4-octylphenyl)ethyl]propane-1,3-diol]",decrease in heart rate,approximately 8 beats/min
